The source of these data is US8367724B2, “Ester compound and use thereof” (Sumitomo Chemical Company, Limited, priority 2007, dated 2013).

Molecules are shown by their SMILES.

The test system of one series is Adult houseflies. Description: Knock-down of adult houseflies, oil solution sprayed in a chamber (Test Example 1). The series is classed as in vivo, housefly. The note with it: 0.7 ml of 0.025% oil solution sprayed in 70 cm cubic chamber; 10 adult houseflies; counted two minutes after spraying; 2 repetitions. The protocol: Each 0.025 part of the present compounds (1) to (3) produced in the above Production Examples was dissolved in 10 parts of dichloromethane, and the solution was mixed with 89.975 parts of deodorized kerosene to prepare a 0.025% oil solution.
Adult houseflies (5 males and 5 females, total 10) were released in a cubic chamber having each side of 70 cm, and 0.7 ml of the 0.025% oil solution of the present compound prepared above was sprayed into the chamber through a small window on a side of the chamber using a spraying gun at a pressure of 8.8×10^4 Pa. Two minutes after spraying, the number of knocked-down houseflies was counted (2 repetitions).
In addition, the same as above test was performed by using, in place of the present compounds (1) to (3), 4-methyl-2,3,5,6-tetrafluorobenzyl (1R)-trans-3-(2-methyl-1-propenyl)-2,2-dimethylcyclopropanecarboxylate represented by the formula: […]

In series [1] the test system is common mosquito (Culex pipens pallens) females. The experiment in a line: Mortality of common mosquito females, oil solution sprayed in a chamber (Test Example 2). Conditions: 0.7 ml of 0.00625% oil solution sprayed in 70 cm cubic chamber; ten females; recovered after ten minutes; dead counted after 24 hours; 2 repetition. In kind it is in vivo. The protocol:
Each 0.00625 parts of the present compounds (1) to (3) produced in the above production Examples was dissolved in 10 parts of dichloromethane, and the solution was mixed with 89.99375 parts of deodorized kerosene to prepare a 0.00625% oil solution.
Ten common mosquito (Culex pipens pallens) females were released in a cubic chamber having each side of 70 cm, and 0.7 ml of the 0.00625% oil solution of the present compound prepared above was sprayed into the chamber through a small window on a side of the chamber using a spraying gun at a pressure of 8.8×10^4 Pa. After ten minutes, common mosquito females were recovered in a clean cup (bottom diameter 8.2 cm) with a cotton wool containing a 0.5% aqueous sugar, and allowed to stand until the next day. After 24 hours, the number of dead mosquitoes was counted, and a mortality was calculated (2 repetition).
In addition, the same as above test was performed using, in place of present compounds (1) to (3), 4-methoxymethyl-2,3,5,6-tetrafluorobenzyl (1R)-trans-3-(2-cyano-1-propenyl)-2,2-dimethylcyclopropanecarboxylate (ratio of isomers regarding double bond: Z/E=about 2/1; compound described in U.S. Pat. No. 6,908,945B2; hereinafter refereed to as Comparative Compound (4)) as a control.

On to `CC(C)=C[C@@H]1[C@@H](C(=O)OCc2c(F)c(F)c(C)c(F)c2F)C1(C)C` [Comparative compound (1), 4-methyl-2,3,5,6-tetrafluorobenzyl (1R)-trans-3-(2-methyl-1-propenyl)-2,2-dimethylcyclopropanecarboxylate, reference compound], for which the “Number of knock-down houseflies” value in the series with Adult houseflies was determined as 0. Same read-out and setting: under `COc1c(F)c(F)c(COC(=O)[C@@H]2[C@@H](C=C(C)C)C2(C)C)c(F)c1F` [Comparative compound (2), 4-methoxy-2,3,5,6-tetrafluorobenzyl (1R)-trans-3-(2-methyl-1-propenyl)-2,2-dimethylcyclopropanecarboxylate, reference compound] stands 0. On to `C=CCc1c(F)c(F)c(COC(=O)[C@@H]2[C@@H](C=C(C)C#N)C2(C)C)c(F)c1F` (racemic) [Present compound (3), 4-allyl-2,3,5,6-tetrafluorobenzyl (1R)-trans-3-(2-cyano-1-propenyl)-2,2-dimethylcyclopropanecarboxylate], for which the “Mortality (%)” value in series [1] was found to be 70%. The “Number of knock-down houseflies” value in the series with Adult houseflies came to 9. For the compound `COCc1c(F)c(F)c(COC(=O)[C@@H]2[C@@H](C=C(C)C#N)C2(C)C)c(F)c1F` [Comparative compound (4), 4-methoxymethyl-2,3,5,6-tetrafluorobenzyl (1R)-trans-3-(2-cyano-1-propenyl)-2,2-dimethylcyclopropanecarboxylate, reference compound], in series [1], the “Mortality (%)” value is 16%. As for `C=CCc1c(F)c(F)c(COC(=O)[C@@H]2[C@@H](C=C(C)C)C2(C)C)c(F)c1F` [Comparative compound (3), 4-allyl-2,3,5,6-tetrafluorobenzyl (1R)-trans-3-(2-methyl-1-propenyl)-2,2-dimethylcyclopropanecarboxylate, reference compound], the “Number of knock-down houseflies” value in the series on Adult houseflies is 0. For `COc1c(F)c(F)c(COC(=O)[C@@H]2[C@@H](C=C(C)C#N)C2(C)C)c(F)c1F` (racemic) [Present compound (2), 4-methoxy-2,3,5,6-tetrafluorobenzyl (1R) trans-3-(2-cyano-1-propenyl)-2,2-dimethylcyclopropanecarboxylate], the “Mortality (%)” value in series [1] turned out to be 100%. The “Number of knock-down houseflies” value with Adult houseflies was 10. In the same order, the values of `CC(C#N)=C[C@@H]1[C@@H](C(=O)OCc2c(F)c(F)c(C)c(F)c2F)C1(C)C` (racemic) [Present compound (1), 4-methyl-2,3,5,6-tetrafluorobenzyl (1R)-trans-3-(2-cyano-1-propenyl)-2,2-dimethylcyclopropanecarboxylate] are 95% and 10.
